In the supplement of paper PMC10307832 one finds relative viability data, which are given here for 5 molecules.

The first test deals with NCI-H2009. In words: relative viability (nuclei count vs DMSO), 5 days (fraction); higher = more cells survive. As to conditions: first compound 0.6325 µM. Put shortly: (§1)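 Nuclei were stained with Hoechst during a one-step fixation (final 0.05% Triton X-100, 1% formaldehyde, 1 ug/ml Hoechst) carried out 5 days after dosing, then counted on 4× images. The cells, lung cancer lines in 1536-well plates, had been dosed by pin tool the day after seeding with one drug alone or a fixed anchor-drug dose plus five library-drug doses (not always all listed) in √10 steps. Relative viability is the nuclei count in treated wells divided by that in vehicle wells, and each value is the median of duplicate plates.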
`COCC1(CO)C(=O)C2CCN1CC2` (configuration not stated) [PRIMA-1MET] + CS(=O)(=O)CCNCc1ccc(-c2ccc3ncnc(Nc4ccc(OCc5cccc(F)c5)c(Cl)c4)c3c2)o1 [Lapatinib] (partner 2 µM) registered a relative viability of 0.844.

Take `COCC1(CO)C(=O)C2CCN1CC2` (configuration not stated) [PRIMA-1MET] + C[C@]1(O)C[C@@H](c2nc(-c3ccc4ccc(-c5ccccc5)nc4c3)c3c(N)nccn32)C1 [Linsitinib] (partner 1 µM): the relative viability is 1.09.

`COCC1(CO)C(=O)C2CCN1CC2` (configuration not stated) [PRIMA-1MET] + COc1cc2c(Oc3ccc(NC(=O)C4(C(=O)Nc5ccc(F)cc5)CC4)cc3F)ccnc2cc1OCCCN1CCOCC1 [Foretinib] (partner 0.25 µM) came in with a relative viability of 1.17.

In turn, `COCC1(CO)C(=O)C2CCN1CC2` (configuration not stated) [PRIMA-1MET] + Cc1nc(NC(=O)N2CCC[C@H]2C(N)=O)sc1-c1ccnc(C(C)(C)C(F)(F)F)c1 [Alpelisib] (partner 2 µM) showed a relative viability of 1.15.

Staying with this test, now noted: first compound 2 µM.
`COCC1(CO)C(=O)C2CCN1CC2` (configuration not stated) [PRIMA-1MET] + CS(=O)(=O)N1CCN(Cc2cc3nc(-c4cccc5[nH]ncc45)nc(N4CCOCC4)c3s2)CC1 [Pictilisib] (partner 1 µM): the relative viability came to 0.506.

`COCC1(CO)C(=O)C2CCN1CC2` (configuration not stated) [PRIMA-1MET] + CS(=O)(=O)CCNCc1ccc(-c2ccc3ncnc(Nc4ccc(OCc5cccc(F)c5)c(Cl)c4)c3c2)o1 [Lapatinib] (partner 2 µM) came in with a relative viability of 0.669.

Molecule `COCC1(CO)C(=O)C2CCN1CC2` (configuration not stated) [PRIMA-1MET] + C[C@]1(O)C[C@@H](c2nc(-c3ccc4ccc(-c5ccccc5)nc4c3)c3c(N)nccn32)C1 [Linsitinib] (partner 1 µM) displayed a relative viability of 1.22.

For `COCC1(CO)C(=O)C2CCN1CC2` (configuration not stated) [PRIMA-1MET] + COc1cc2c(Oc3ccc(NC(=O)C4(C(=O)Nc5ccc(F)cc5)CC4)cc3F)ccnc2cc1OCCCN1CCOCC1 [Foretinib] (partner 0.25 µM), the relative viability was determined as 1.22.

The molecule `COCC1(CO)C(=O)C2CCN1CC2` (configuration not stated) [PRIMA-1MET] + Cc1nc(NC(=O)N2CCC[C@H]2C(N)=O)sc1-c1ccnc(C(C)(C)C(F)(F)F)c1 [Alpelisib] (partner 2 µM) gave a relative viability of 1.23.

The test is the same for the next values; noted with them: first compound 6.325 µM.
The molecule `COCC1(CO)C(=O)C2CCN1CC2` (configuration not stated) [PRIMA-1MET] + CS(=O)(=O)N1CCN(Cc2cc3nc(-c4cccc5[nH]ncc45)nc(N4CCOCC4)c3s2)CC1 [Pictilisib] (partner 1 µM) showed a relative viability of 0.513.

Regarding `COCC1(CO)C(=O)C2CCN1CC2` (configuration not stated) [PRIMA-1MET] + CS(=O)(=O)CCNCc1ccc(-c2ccc3ncnc(Nc4ccc(OCc5cccc(F)c5)c(Cl)c4)c3c2)o1 [Lapatinib] (partner 2 µM), the relative viability came out at 0.905.

On to `COCC1(CO)C(=O)C2CCN1CC2` (configuration not stated) [PRIMA-1MET] + C[C@]1(O)C[C@@H](c2nc(-c3ccc4ccc(-c5ccccc5)nc4c3)c3c(N)nccn32)C1 [Linsitinib] (partner 1 µM), for which the relative viability came out at 1.16.

Molecule `COCC1(CO)C(=O)C2CCN1CC2` (configuration not stated) [PRIMA-1MET] + COc1cc2c(Oc3ccc(NC(=O)C4(C(=O)Nc5ccc(F)cc5)CC4)cc3F)ccnc2cc1OCCCN1CCOCC1 [Foretinib] (partner 0.25 µM) gave a relative viability of 1.22.

With `COCC1(CO)C(=O)C2CCN1CC2` (configuration not stated) [PRIMA-1MET] + Cc1nc(NC(=O)N2CCC[C@H]2C(N)=O)sc1-c1ccnc(C(C)(C)C(F)(F)F)c1 [Alpelisib] (partner 2 µM), the relative viability came to 1.13.

The same test, now with this note: first compound 20 µM.
The molecule `COCC1(CO)C(=O)C2CCN1CC2` (configuration not stated) [PRIMA-1MET] + CS(=O)(=O)N1CCN(Cc2cc3nc(-c4cccc5[nH]ncc45)nc(N4CCOCC4)c3s2)CC1 [Pictilisib] (partner 1 µM) showed a relative viability of 0.0085.

In the case of `COCC1(CO)C(=O)C2CCN1CC2` (configuration not stated) [PRIMA-1MET] + CS(=O)(=O)CCNCc1ccc(-c2ccc3ncnc(Nc4ccc(OCc5cccc(F)c5)c(Cl)c4)c3c2)o1 [Lapatinib] (partner 2 µM), the relative viability was found to be 0.0051.

`COCC1(CO)C(=O)C2CCN1CC2` (configuration not stated) [PRIMA-1MET] + C[C@]1(O)C[C@@H](c2nc(-c3ccc4ccc(-c5ccccc5)nc4c3)c3c(N)nccn32)C1 [Linsitinib] (partner 1 µM) displayed a relative viability of 0.693.

As to `COCC1(CO)C(=O)C2CCN1CC2` (configuration not stated) [PRIMA-1MET] + COc1cc2c(Oc3ccc(NC(=O)C4(C(=O)Nc5ccc(F)cc5)CC4)cc3F)ccnc2cc1OCCCN1CCOCC1 [Foretinib] (partner 0.25 µM), the relative viability stood at 0.52.

`COCC1(CO)C(=O)C2CCN1CC2` (configuration not stated) [PRIMA-1MET] + Cc1nc(NC(=O)N2CCC[C@H]2C(N)=O)sc1-c1ccnc(C(C)(C)C(F)(F)F)c1 [Alpelisib] (partner 2 µM) yielded a relative viability of 0.325.

The subject of another test is NCI-H2126. Described as above. The following applies: first compound 0.2 µM. Put shortly:
as §1
The molecule `COCC1(CO)C(=O)C2CCN1CC2` (configuration not stated) [PRIMA-1MET] + CS(=O)(=O)N1CCN(Cc2cc3nc(-c4cccc5[nH]ncc45)nc(N4CCOCC4)c3s2)CC1 [Pictilisib] (partner 1 µM) showed a relative viability of 0.459.

`COCC1(CO)C(=O)C2CCN1CC2` (configuration not stated) [PRIMA-1MET] + CS(=O)(=O)CCNCc1ccc(-c2ccc3ncnc(Nc4ccc(OCc5cccc(F)c5)c(Cl)c4)c3c2)o1 [Lapatinib] (partner 2 µM) had a relative viability of 0.875.

On to `COCC1(CO)C(=O)C2CCN1CC2` (configuration not stated) [PRIMA-1MET] + C[C@]1(O)C[C@@H](c2nc(-c3ccc4ccc(-c5ccccc5)nc4c3)c3c(N)nccn32)C1 [Linsitinib] (partner 1 µM), for which the relative viability turned out to be 0.726.

`COCC1(CO)C(=O)C2CCN1CC2` (configuration not stated) [PRIMA-1MET] + COc1cc2c(Oc3ccc(NC(=O)C4(C(=O)Nc5ccc(F)cc5)CC4)cc3F)ccnc2cc1OCCCN1CCOCC1 [Foretinib] (partner 0.25 µM) yielded a relative viability of 1.3.

The molecule `COCC1(CO)C(=O)C2CCN1CC2` (configuration not stated) [PRIMA-1MET] + Cc1nc(NC(=O)N2CCC[C@H]2C(N)=O)sc1-c1ccnc(C(C)(C)C(F)(F)F)c1 [Alpelisib] (partner 2 µM) had a relative viability of 0.822.

The same test, now with this note: first compound 0.6325 µM.
On to `COCC1(CO)C(=O)C2CCN1CC2` (configuration not stated) [PRIMA-1MET] + CS(=O)(=O)N1CCN(Cc2cc3nc(-c4cccc5[nH]ncc45)nc(N4CCOCC4)c3s2)CC1 [Pictilisib] (partner 1 µM), for which the relative viability is 0.485.

On to `COCC1(CO)C(=O)C2CCN1CC2` (configuration not stated) [PRIMA-1MET] + CS(=O)(=O)CCNCc1ccc(-c2ccc3ncnc(Nc4ccc(OCc5cccc(F)c5)c(Cl)c4)c3c2)o1 [Lapatinib] (partner 2 µM), for which the relative viability worked out at 0.757.

The molecule `COCC1(CO)C(=O)C2CCN1CC2` (configuration not stated) [PRIMA-1MET] + C[C@]1(O)C[C@@H](c2nc(-c3ccc4ccc(-c5ccccc5)nc4c3)c3c(N)nccn32)C1 [Linsitinib] (partner 1 µM) displayed a relative viability of 0.692.

As for `COCC1(CO)C(=O)C2CCN1CC2` (configuration not stated) [PRIMA-1MET] + COc1cc2c(Oc3ccc(NC(=O)C4(C(=O)Nc5ccc(F)cc5)CC4)cc3F)ccnc2cc1OCCCN1CCOCC1 [Foretinib] (partner 0.25 µM), the relative viability turned out to be 0.993.

Molecule `COCC1(CO)C(=O)C2CCN1CC2` (configuration not stated) [PRIMA-1MET] + Cc1nc(NC(=O)N2CCC[C@H]2C(N)=O)sc1-c1ccnc(C(C)(C)C(F)(F)F)c1 [Alpelisib] (partner 2 µM) showed a relative viability of 0.749.

The same test, now with this note: first compound 2 µM.
`COCC1(CO)C(=O)C2CCN1CC2` (configuration not stated) [PRIMA-1MET] + CS(=O)(=O)N1CCN(Cc2cc3nc(-c4cccc5[nH]ncc45)nc(N4CCOCC4)c3s2)CC1 [Pictilisib] (partner 1 µM) came in with a relative viability of 0.418.

`COCC1(CO)C(=O)C2CCN1CC2` (configuration not stated) [PRIMA-1MET] + CS(=O)(=O)CCNCc1ccc(-c2ccc3ncnc(Nc4ccc(OCc5cccc(F)c5)c(Cl)c4)c3c2)o1 [Lapatinib] (partner 2 µM) came in with a relative viability of 0.733.

As for `COCC1(CO)C(=O)C2CCN1CC2` (configuration not stated) [PRIMA-1MET] + C[C@]1(O)C[C@@H](c2nc(-c3ccc4ccc(-c5ccccc5)nc4c3)c3c(N)nccn32)C1 [Linsitinib] (partner 1 µM), the relative viability turned out to be 0.636.
